From BindingDB's records for doi:10.7270/Q2CF9NJZ (Nmmlsc, 2010)

The molecules below were run against Regulator of G-protein signaling 4 (Homo sapiens, UniProt P49798) (assay: RGS4-Galphao binding modulators, SAR follow-up, biochemical, multiplexed bead flow cytometry, SAR compounds (AID 2295)). Conditions: not given.
Regulator of G-protein signaling 4, sequence (P49798 whole entry): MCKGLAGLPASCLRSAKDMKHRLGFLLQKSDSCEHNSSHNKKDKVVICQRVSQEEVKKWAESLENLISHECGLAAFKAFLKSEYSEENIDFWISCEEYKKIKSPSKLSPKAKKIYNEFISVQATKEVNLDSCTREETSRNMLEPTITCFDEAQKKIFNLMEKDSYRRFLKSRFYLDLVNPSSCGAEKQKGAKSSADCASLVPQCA
An EC50 of 1.2 µM was found for `NS(=O)(=O)c1ccc(N=NCc2ccc(O)c(O)c2O)c([N+](=O)[O-])c1` [4-[[(E)-(2,3-dihydroxy-4-oxo-1-cyclohexa-2,5-dienylidene)methyl]hydrazo]-3-nitrobenzenesulfonamide] in this work. An EC50 of 1.71 µM was found for `CN=c1scc(C)n1N=Cc1ccc(O)c(O)c1O` [(4E)-2,3-dihydroxy-4-[[(4-methyl-2-methylimino-1,3-thiazol-3-yl)amino]methylidene]cyclohexa-2,5-dien-1-one] in this work. An EC50 of 0.323 µM was found for `O=c1c2ccccc2sn1-c1ccc(S(=O)(=O)N2CCCC2)cc1` [2-(4-pyrrolidin-1-ylsulfonylphenyl)-1,2-benzothiazol-3-one] in this work. An EC50 of 11 µM was found for `Cc1[nH]n(-c2ccccc2)c(=S)c1/C=N/c1cccc([N+](=O)[O-])c1` [(4E)-5-methyl-4-[(3-nitroanilino)methylene]-2-phenyl-2-pyrazoline-3-thione] in this work. An EC50 of 0.164 µM was found for `O=C(COc1ccccc1C(=O)NN=Cc1ccc(O)c(O)c1)NN=Cc1ccc(O)c(O)c1` [N''-[(Z)-(3-hydroxy-4-oxo-1-cyclohexa-2,5-dienylidene)methyl]-2-[2-[[(Z)-(3-hydroxy-4-oxo-1-cyclohexa-2,5-dienylidene)methyl]hydrazo]-2-oxoethoxy]benzohydrazide] in this work. An EC50 of over 30 µM was found for `Cc1cccc(N2CCN(C(=O)CN3CCc4nc(C)cc(C)c4C3=O)CC2C)c1` (configuration not stated) [KUC103675N] in this work. An EC50 of 0.632 µM was found for `CCN(CC)S(=O)(=O)c1cccc(C(=O)NN=Cc2ccc(O)c(O)c2O)c1` in this work. An EC50 of 0.269 µM was found for `O=C1C(Cl)=C(N2CCCCC2)C(=O)C(Cl)=C1c1cnc(N2CCCCC2)s1` [MLS000550549] in this work. An EC50 of over 30 µM was found for `COC(=O)CCC(=O)Nc1sc(C)c(C)c1C(N)=O` [4-[(3-carbamoyl-4,5-dimethyl-2-thienyl)amino]-4-keto-butyric acid methyl ester] in this work. An EC50 of over 30 µM was found for `Cc1cc(C)c2c(=O)n(CC(=O)N3CCN(c4ccccc4)CC3)ccc2n1` [2,4-dimethyl-6-[2-oxidanylidene-2-(4-phenylpiperazin-1-yl)ethyl]-1,6-naphthyridin-5-one] in this work. An EC50 of 0.336 µM was found for `CN1CCN(C2=C(Cl)C(=O)C(c3cnc(N4CCCCC4)s3)=C(Cl)C2=O)CC1` in this work. An EC50 of over 30 µM was found for `Cc1cc(C)c2c(n1)CCN(CC(=O)N1CCN(c3ccccc3)CC1)C2=O` [2,4-dimethyl-6-[2-oxidanylidene-2-(4-phenylpiperazin-1-yl)ethyl]-7,8-dihydro-1,6-naphthyridin-5-one] in this work. An EC50 of over 30 µM was found for `Nc1c(C(=O)NCC2CCCO2)sc2nc3c(c(-c4ccco4)c12)CC/C3=C/c1ccco1` (configuration not stated) [UNM-0000305796] in this work. An EC50 of 10.1 µM was found for `O=C(NCCCN1CCOCC1)c1sc2cc([N+](=O)[O-])ccc2c1Cl` [3-chloranyl-N-(3-morpholin-4-ylpropyl)-6-nitro-1-benzothiophene-2-carboxamide] in this work. An EC50 of 3.52 µM was found for `CCN=c1scc(C)n1N=Cc1ccc(O)c(O)c1O` in this work. An EC50 of 7.85 µM was found for `CCOC(=O)c1sc(NC(=O)CSc2nnc(Cc3ccccc3)o2)c(C#N)c1C` [4-cyano-3-methyl-5-[[1-oxo-2-[[5-(phenylmethyl)-1,3,4-oxadiazol-2-yl]thio]ethyl]amino]-2-thiophenecarboxylic acid ethyl ester] in this work. An EC50 of 0.573 µM was found for `COc1ccc(C2=CC(=O)C=CC2=O)cc1` [MLS001029846] in this work. An EC50 of 1.1 µM was found for `O=C(Cc1csc(N2CCOCC2)n1)NN=Cc1ccc(O)c(O)c1O` [SMR000369439] in this work. An EC50 of 9.64 µM was found for `CCN(CC)S(=O)(=O)c1cccc(-c2n[nH]c(=S)n2N=Cc2ccc(C(=O)OC)cc2)c1` [4-[(E)-[3-[3-(diethylsulfamoyl)phenyl]-5-thioxo-1H-1,2,4-triazol-4-yl]iminomethyl]benzoic acid methyl ester] in this work. An EC50 of 0.3 µM was found for `Cc1cc(Cl)ccc1/N=c1/ssnc1Cl` [MLS000539990] in this work. An EC50 of 6.61 µM was found for `CCC(=O)NC(c1ccc(C)cc1)c1cc([N+](=O)[O-])c2cccnc2c1O` (configuration not stated) [MLS000553854] in this work. An EC50 of 6.85 µM was found for `Cc1cccc(N2CCN(C(=O)COc3nsc4nc(C)cc(C)c34)CC2C)c1` (configuration not stated) in this work. An EC50 of over 30 µM was found for `Cc1cccc(N2CCN(C(=O)Cn3ccc4nc(C)cc(C)c4c3=O)CC2C)c1` (configuration not stated) [2,4-dimethyl-6-[2-[3-methyl-4-(3-methylphenyl)piperazin-1-yl]-2-oxidanylidene-ethyl]-1,6-naphthyridin-5-one] in this work. An EC50 of over 30 µM was found for `Cc1cccc(N2CCN(C(=O)COc3noc4nc(C)cc(C)c34)CC2C)c1` (configuration not stated) [2-[(4,6-dimethyl-[1,2]oxazolo[5,4-b]pyridin-3-yl)oxy]-1-[3-methyl-4-(3-methylphenyl)piperazin-1-yl]ethanone] in this work. An EC50 of over 30 µM was found for `CC1(C)OC(=O)C(=Cc2ccc(-c3ccc(S(N)(=O)=O)cc3)o2)C(=O)O1` [SMR000273939] in this work. An EC50 of 0.135 µM was found for `O=c1c2ccccc2sn1-c1ccccc1` [2-phenyl-1,2-benzothiazol-3-one] in this work.

Same assay, conditions: inactive by the depositor's call
An EC50 of 3.66 µM was found for `CCOc1ccccc1-c1c2cc(O)c(=O)cc-2oc2cc(O)c(O)cc12` [MLS000578271] in this work.
